In patent publication US20260258351A1, “METHOD FOR DIFFERENTIATING VISCERAL SENSORY NEURONS FROM HUMAN INDUCED PLURIPOTENT STEM CELLS” (SEOUL NATIONAL UNIVERSITY R&DB FOUNDATION, priority 2022, published 2026):

System: induced-Visceral sensory neurons (i-VSN)
Test: Live cell calcium imaging of induced-Visceral sensory neurons after compound treatment
Type: cell-based, human
Conditions: real-time calcium imaging, FLIPR Calcium 6 Assay Kit, FIGS. 7a-7f
Description: For Live cell calcium imaging, the FLIPR Calcium 6 Assay Kit ([…], Molecular Devices) was used. The overall steps were performed according to the manufacturer's protocol. The test solution, in which components A and B were mixed, was incubated in an incubator at 37° C. for 2 hours, and during this process, the carbon dioxide concentration was maintained at 5%. Then, after treatment with a fluorescent substance, the fluorescence signal was detected for 5 minutes using an EVOS live imaging system (Thermo-Fisher) capable of maintaining a temperature of 37° C., a 5% carbon dioxide concentration, and 80% humidity. The detected signals were obtained by video or continuous snapshots (once per second). In order to confirm the functional aspect of the induced Visceral sensory neurons, the changes in the activity of the neurons were measured using a real-time calcium imaging technique after treating the Visceral sensory neurons with various compounds known to stimulate the same. A total of three compounds (i.e., liraglutide, CCK-8, and capsaicin) were used. Liraglutide corresponds to an agonist of GLP1R and is known to activate the nodose ganglion. […] CCK-8 is an agonist of the CCK receptor and is known to be able to stimulate the nodose ganglion as well. […] Capsaicin is a compound that has excitotoxicity toward TRPV1 and is known to detect pain and heat sensations in the nodose ganglion. […]

COc1cc(CNC(=O)CCCC/C=C/C(C)C)ccc1O [Capsaicin]
change in neuron activity (calcium signal) after treatment: induced the activity

CCK-8
change in neuron activity (calcium signal) after treatment: calcium signal was amplified
